Experimental data from PubChem BioAssay (NCI).
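Five compound concentrations were applied to cells in 96-well plates for 48 hours; endpoints were derived by simple linear interpolation of the resulting dose-response curve. The concentration for 50% growth inhibition is given as GI50. Definition used: TGI = concentration required for complete inhibition of growth.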

Columns and labels:
Experiment in all cases: NCI anticancer screen, dose series, 48 h
A549 NSCLC = test system: A549 NSCLC
CAKI-1 renal = test system: CAKI-1 renal
HOP-62 NSCLC = test system: HOP-62 NSCLC
LOX IMVI melanoma = test system: LOX IMVI melanoma
MALME-3M melanoma = test system: MALME-3M melanoma
OVCAR-8 ovarian = test system: OVCAR-8 ovarian
SF-268 CNS = test system: SF-268 CNS
SF-295 CNS = test system: SF-295 CNS
SW-620 colon = test system: SW-620 colon
TK-10 renal = test system: TK-10 renal

Compound	TGI (A549 NSCLC)	TGI (CAKI-1 renal)	TGI (HOP-62 NSCLC)	TGI (LOX IMVI melanoma)	TGI (MALME-3M melanoma)	TGI (OVCAR-8 ovarian)	TGI (SF-268 CNS)	TGI (SF-295 CNS)	TGI (SW-620 colon)	TGI (TK-10 renal)	GI50 (A549 NSCLC)	GI50 (CAKI-1 renal)	GI50 (HOP-62 NSCLC)	GI50 (LOX IMVI melanoma)	GI50 (MALME-3M melanoma)	GI50 (OVCAR-8 ovarian)	GI50 (SF-268 CNS)	GI50 (SF-295 CNS)	GI50 (SW-620 colon)	GI50 (TK-10 renal)
NC(CSC1(c2ccc(Cl)cc2)c2ccccc2-c2ccccc21)C(=O)O (configuration not stated)	> 100 µM	> 100 µM	49.6 µM	30.3 µM	38.5 µM	38.7 µM	50.2 µM	37.7 µM	> 100 µM	48.3 µM										
O=C1Nc2c(ccc(Cl)c2Cl)/C1=C\c1cc(C(F)(F)F)cc(C(F)(F)F)c1	13 µM	7.85 µM	14.4 µM	3.69 µM	8.91 µM	16 µM	8.51 µM	8.02 µM	6.1 µM	13 µM	4.81 µM	0.399 µM	7.04 µM	1.12 µM	0.795 µM	5.75 µM	1.86 µM	1.92 µM	1.66 µM	4.37 µM
NNc1ncnc2cccc(Cl)c12	> 100 µM	> 100 µM	> 100 µM		> 100 µM	> 100 µM	> 100 µM	> 100 µM	> 100 µM	> 100 µM										
CS(=O)(=O)c1ccc(-c2cnc(NCc3ccco3)n3cnnc23)cc1	> 100 µM	> 100 µM	> 100 µM	> 100 µM	> 100 µM	> 100 µM	> 100 µM	> 100 µM	> 100 µM	> 100 µM	> 100 µM	> 100 µM	> 100 µM	60.1 µM	27.5 µM	> 100 µM	> 100 µM	> 100 µM	> 100 µM	> 100 µM
COC(=O)Cc1nn2c(nc1=O)sc1ccc3ccccc3c12	> 100 µM	> 100 µM	> 100 µM	> 100 µM	> 100 µM	> 100 µM			> 100 µM											
CC/C(=C(/CC)c1ccc(O)cc1)c1ccc(O)cc1	20.5 µM	27.8 µM	20.9 µM	19.4 µM	25.1 µM	37.1 µM	20.8 µM	11.6 µM	14.5 µM	37.6 µM	4.59 µM	4.22 µM	4.89 µM	5.75 µM	5.54 µM	7.9 µM	5.5 µM	2.73 µM	3.88 µM	14.8 µM
CC(C)(N)C(=O)N[C@@H]1C(=O)N2[C@@H]1SC(C)(C)[C@@H]2C(=O)O	> 100 µM	> 100 µM	> 100 µM	> 100 µM	> 100 µM	> 100 µM	> 100 µM	> 100 µM	> 100 µM	> 100 µM										
Nc1nc(-c2ccc3ccccc3c2)cc(-c2cc(-c3ccc4ccccc4c3)nc(N)n2)n1	> 100 µM	> 100 µM	> 100 µM	> 100 µM	> 100 µM	> 100 µM	> 100 µM	> 100 µM	> 100 µM	> 100 µM										
Cc1cc(Cl)ccc1Nc1nc2c(s1)C(=O)c1ccccc1C2=O	21.4 µM	20.3 µM	9.72 µM	3.12 µM	2.92 µM	11.6 µM	11.3 µM	24.2 µM	4.01 µM	33.4 µM										
C=CCn1c(=O)c(C(=O)NC(=O)OCC)cn(C2CCCCC2)c1=O	> 100 µM	> 100 µM	> 100 µM	> 100 µM	> 100 µM	> 100 µM		> 100 µM	> 100 µM	> 100 µM										
CCOC(=O)CP(=S)(S)c1ccccc1 (configuration not stated)	> 100 µM	> 100 µM	> 100 µM	> 100 µM	> 100 µM	> 100 µM	> 100 µM		> 100 µM	> 100 µM										
CC(O)c1ccc(C(O)/C(=N\NC(=O)c2ccncc2)c2nc3ccc([N+](=O)[O-])cc3[nH]c2=O)cc1 (configuration not stated)	> 100 µM	> 100 µM	> 100 µM	> 100 µM	> 100 µM	> 100 µM	> 100 µM	> 100 µM	> 100 µM											
CCOC(=O)Nc1cc(-c2ccc(C)c(NS(C)(=O)=O)c2)nn2c(C)nnc12	> 100 µM	23.6 µM	20.5 µM		41.5 µM	> 100 µM	> 100 µM	56.3 µM	30.9 µM	7.36 µM	3.07 µM	0.537 µM	1.89 µM		1.11 µM	2.04 µM	4.13 µM	1.85 µM	2.42 µM	0.465 µM
Cc1nc(-n2nc(-c3ccccc3)cc2-c2ccccc2)sc1C(/C=C/c1ccc([N+](=O)[O-])cc1)=N/NC(N)=S	> 100 µM	> 100 µM	65.7 µM		> 100 µM	> 100 µM	> 100 µM	> 100 µM		> 100 µM										
CCCCC1N=CNc2c1ccc1c2[nH]c2ccccc21 (configuration not stated)	10.6 µM	9.16 µM	9.97 µM		10.5 µM		29.4 µM	7.25 µM	3.55 µM	10.9 µM										
O=C(NCCCl)NCc1ccccc1	> 100 µM	> 100 µM	> 100 µM	> 100 µM	> 100 µM	> 100 µM	> 100 µM	> 100 µM	> 100 µM											
Cc1cc(C)c(C(=O)/C(=C/c2ccccc2)c2ccccc2)c(C)c1	> 100 µM	> 100 µM	> 100 µM		> 100 µM	> 100 µM	> 100 µM	> 100 µM	> 100 µM	> 100 µM										
COc1ccc2c(c1)CC1N(C)CCC13CCCCC23 (configuration not stated)	> 100 µM	> 100 µM	> 100 µM	> 100 µM	> 100 µM	> 100 µM	> 100 µM	> 100 µM		> 100 µM										
Cc1ccnc(NC(c2ccccc2)c2ccc3cccnc3c2O)c1 (configuration not stated)	45.1 µM	7.17 µM	96.2 µM	34.2 µM	34.9 µM	16.3 µM	21.5 µM	16.3 µM	15.6 µM		3.99 µM	1.68 µM	4.41 µM	3.29 µM	2.89 µM	3.23 µM	2.93 µM	2.42 µM	3.86 µM	
